From ChEMBL document CHEMBL1201862, “PubChem BioAssay data set” (2004)
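Values below derive from 48-hour exposures of cells grown in 96-well plates, with endpoints linearly interpolated between the two concentrations bracketing the appropriate inhibition level. GI50 = concentration required for 50% inhibition of growth.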 The source made the active and inactive calls. Rule as the data show it: active = GI50 up to about 1.1 µM and inactive = higher.

Columns and labels:
Test in all cases: NCI tumour cell line growth inhibition, 48 h
786-0 = tested on: 786-0
A498 = tested on: A498
A549 = tested on: A549
ACHN = tested on: ACHN
CAKI-1 = tested on: CAKI-1
CCRF-CEM = tested on: CCRF-CEM
COLO 205 = tested on: COLO 205
DLD-1 = tested on: DLD-1
DMS-114 = tested on: DMS-114
DMS-273 = tested on: DMS-273
EKVX = tested on: EKVX
HCC 2998 = tested on: HCC 2998
HCT-116 = tested on: HCT-116
HCT-15 = tested on: HCT-15
HL-60 = tested on: HL-60
HOP-18 = tested on: HOP-18
HOP-62 = tested on: HOP-62
HOP-92 = tested on: HOP-92
HT-29 = tested on: HT-29
IGROV-1 = tested on: IGROV-1
K562 = tested on: K562
KM12 = tested on: KM12
LOX IMVI = tested on: LOX IMVI
LXFL 529 = tested on: LXFL 529
M14 = tested on: M14
M19-MEL = tested on: M19-MEL
MOLT-4 = tested on: MOLT-4
Malme-3M = tested on: Malme-3M
NCI-H226 = tested on: NCI-H226
NCI-H23 = tested on: NCI-H23
NCI-H460 = tested on: NCI-H460
NCI-H522 = tested on: NCI-H522
OVCAR-3 = tested on: OVCAR-3
OVCAR-4 = tested on: OVCAR-4
OVCAR-5 = tested on: OVCAR-5
OVCAR-8 = tested on: OVCAR-8
RPMI-8226 = tested on: RPMI-8226
RXF 393 = tested on: RXF 393
RXF 631 = tested on: RXF 631
SF-268 = tested on: SF-268
SF-295 = tested on: SF-295
SF-539 = tested on: SF-539
SK-MEL-28 = tested on: SK-MEL-28
SK-MEL-2 = tested on: SK-MEL-2
SK-MEL-5 = tested on: SK-MEL-5
SK-OV-3 = tested on: SK-OV-3
SN12C = tested on: SN12C
SNB-19 = tested on: SNB-19
SNB-75 = tested on: SNB-75
SNB-78 = tested on: SNB-78
SR = tested on: SR
SW-620 = tested on: SW-620
TK-10 = tested on: TK-10
U-251 = tested on: U-251
UACC-257 = tested on: UACC-257
UACC-62 = tested on: UACC-62
UO-31 = tested on: UO-31
XF498 = tested on: XF498
KM-20L2 = tested on: KM-20L2

Cc1cc2c(C(C)C)c(O)c(O)c(/C=N\CCO)c2c(O)c1-c1c(C)cc2c(C(C)C)c(O)c(O)c(/C=N/CCO)c2c1O
GI50 (786-0): 2100 nM (inactive)
GI50 (A498): 3360 nM (inactive)
GI50 (A549): 1210 nM (inactive)
GI50 (ACHN): 3370 nM (inactive)
GI50 (CAKI-1): 5240 nM (inactive)
GI50 (CCRF-CEM): 653 nM (active)
GI50 (COLO 205): 1630 nM (inactive)
GI50 (DLD-1): 3330 nM (inactive)
GI50 (DMS-114): 1230 nM (inactive)
GI50 (DMS-273): 1620 nM (inactive)
GI50 (EKVX): 2280 nM (inactive)
GI50 (HCC 2998): 2900 nM (inactive)
GI50 (HCT-116): 1670 nM (inactive)
GI50 (HCT-15): 1510 nM
GI50 (HL-60): 2430 nM (inactive)
GI50 (HOP-18): 1910 nM (inactive)
GI50 (HOP-62): 2600 nM (inactive)
GI50 (HOP-92): 1750 nM (inactive)
GI50 (HT-29): 2280 nM (inactive)
GI50 (IGROV-1): 1910 nM (inactive)
GI50 (K562): 1020 nM (active)
GI50 (KM12): 740 nM (active)
GI50 (LOX IMVI): 1640 nM (inactive)
GI50 (LXFL 529): 1640 nM (inactive)
GI50 (M14): 1830 nM (inactive)
GI50 (M19-MEL): 1860 nM (inactive)
GI50 (MOLT-4): 527 nM (active)
GI50 (Malme-3M): 2470 nM (inactive)
GI50 (NCI-H226): 2510 nM (inactive)
GI50 (NCI-H23): 1760 nM (inactive)
GI50 (NCI-H460): 1120 nM (active)
GI50 (NCI-H522): 2040 nM (inactive)
GI50 (OVCAR-3): 2020 nM (inactive)
GI50 (OVCAR-4): 3600 nM (inactive)
GI50 (OVCAR-5): 3660 nM (inactive)
GI50 (OVCAR-8): 3300 nM (inactive)
GI50 (RPMI-8226): 1190 nM (inactive)
GI50 (RXF 393): 3560 nM (inactive)
GI50 (RXF 631): 2330 nM (inactive)
GI50 (SF-268): 1390 nM (inactive)
GI50 (SF-295): 2150 nM (inactive)
GI50 (SF-539): 2540 nM (inactive)
GI50 (SK-MEL-28): 1670 nM (inactive)
GI50 (SK-MEL-2): 3150 nM (inactive)
GI50 (SK-MEL-5): 1730 nM (inactive)
GI50 (SK-OV-3): 3370 nM (inactive)
GI50 (SN12C): 2840 nM (inactive)
GI50 (SNB-19): 2050 nM (inactive)
GI50 (SNB-75): 2670 nM (inactive)
GI50 (SNB-78): 3240 nM (inactive)
GI50 (SR): 1100 nM (active)
GI50 (SW-620): 3830 nM (inactive)
GI50 (TK-10): 6400 nM (inactive)
GI50 (U-251): 1210 nM (inactive)
GI50 (UACC-257): 2320 nM (inactive)
GI50 (UACC-62): 2740 nM (inactive)
GI50 (UO-31): 3440 nM (inactive)
GI50 (XF498): 2870 nM (inactive)

CC(C)(C)[Si](C)(C)O/N=C\c1ccc(O[Si](C)(C)C(C)(C)C)cc1
GI50 (786-0): 38500 nM (inactive)
GI50 (A498): 52400 nM (inactive)
GI50 (A549): 92700 nM (inactive)
GI50 (ACHN): 37600 nM (inactive)
GI50 (CAKI-1): > 100000 nM (inactive)
GI50 (CCRF-CEM): 49800 nM (inactive)
GI50 (COLO 205): > 100000 nM (inactive)
GI50 (DLD-1): > 100000 nM (inactive)
GI50 (DMS-114): 25900 nM (inactive)
GI50 (DMS-273): > 100000 nM (inactive)
GI50 (EKVX): > 100000 nM (inactive)
GI50 (HCC 2998): 36800 nM (inactive)
GI50 (HCT-116): 24200 nM (inactive)
GI50 (HCT-15): 33300 nM
GI50 (HL-60): 36500 nM (inactive)
GI50 (HOP-18): > 100000 nM (inactive)
GI50 (HOP-62): > 100000 nM (inactive)
GI50 (HT-29): 64400 nM (inactive)
GI50 (IGROV-1): > 100000 nM (inactive)
GI50 (K562): 45900 nM (inactive)
GI50 (KM-20L2): 44700 nM (inactive)
GI50 (KM12): > 100000 nM (inactive)
GI50 (LOX IMVI): 21300 nM (inactive)
GI50 (LXFL 529): 84900 nM (inactive)
GI50 (M14): 62100 nM (inactive)
GI50 (M19-MEL): 41300 nM (inactive)
GI50 (MOLT-4): 41300 nM (inactive)
GI50 (Malme-3M): > 100000 nM (inactive)
GI50 (NCI-H23): > 100000 nM (inactive)
GI50 (NCI-H460): > 100000 nM (inactive)
GI50 (OVCAR-3): 20200 nM (inactive)
GI50 (OVCAR-4): > 100000 nM (inactive)
GI50 (OVCAR-5): 44100 nM (inactive)
GI50 (OVCAR-8): 62800 nM (inactive)
GI50 (RPMI-8226): 57500 nM (inactive)
GI50 (RXF 393): 24500 nM (inactive)
GI50 (RXF 631): 24000 nM (inactive)
GI50 (SF-268): 49500 nM (inactive)
GI50 (SF-295): 52500 nM (inactive)
GI50 (SF-539): 42500 nM (inactive)
GI50 (SK-MEL-2): > 100000 nM (inactive)
GI50 (SK-MEL-5): > 100000 nM (inactive)
GI50 (SK-OV-3): > 100000 nM (inactive)
GI50 (SN12C): 61200 nM (inactive)
GI50 (SNB-19): 72400 nM (inactive)
GI50 (SNB-75): 72100 nM (inactive)
GI50 (SNB-78): > 100000 nM (inactive)
GI50 (SW-620): > 100000 nM (inactive)
GI50 (TK-10): > 100000 nM (inactive)
GI50 (U-251): 25200 nM (inactive)
GI50 (UACC-257): > 100000 nM (inactive)
GI50 (UACC-62): > 100000 nM (inactive)
GI50 (UO-31): 50900 nM (inactive)
GI50 (XF498): 31800 nM (inactive)

CCN(CC)Cc1cc(Nc2c3ccccc3nc3c2[nH]c2ccccc23)ccc1O
GI50 (786-0): 1130 nM (inactive)
GI50 (A498): 1610 nM (inactive)
GI50 (A549): 352 nM (active)
GI50 (ACHN): 875 nM (active)
GI50 (CAKI-1): 1460 nM (inactive)
GI50 (COLO 205): 1020 nM (active)
GI50 (DLD-1): 1250 nM (inactive)
GI50 (DMS-114): 1640 nM (inactive)
GI50 (DMS-273): 565 nM (active)
GI50 (EKVX): 2450 nM (inactive)
GI50 (HCT-116): 345 nM (active)
GI50 (HCT-15): 853 nM
GI50 (HL-60): 2160 nM (inactive)
GI50 (HOP-18): 1600 nM (inactive)
GI50 (HOP-62): 1140 nM (inactive)
GI50 (HOP-92): 1500 nM (inactive)
GI50 (HT-29): 520 nM (active)
GI50 (IGROV-1): 1160 nM (inactive)
GI50 (K562): 1870 nM (inactive)
GI50 (KM-20L2): 867 nM (active)
GI50 (KM12): 1360 nM (inactive)
GI50 (LOX IMVI): 1220 nM (inactive)
GI50 (LXFL 529): 1390 nM (inactive)
GI50 (M14): 1700 nM (inactive)
GI50 (M19-MEL): 1630 nM (inactive)
GI50 (MOLT-4): 508 nM (active)
GI50 (Malme-3M): 1900 nM (inactive)
GI50 (NCI-H226): 1850 nM (inactive)
GI50 (NCI-H23): 1430 nM (inactive)
GI50 (NCI-H460): 750 nM (active)
GI50 (NCI-H522): 1130 nM (inactive)
GI50 (OVCAR-4): 1390 nM (inactive)
GI50 (OVCAR-5): 1220 nM (inactive)
GI50 (OVCAR-8): 1080 nM (active)
GI50 (RPMI-8226): 1960 nM (inactive)
GI50 (RXF 393): 1310 nM (inactive)
GI50 (RXF 631): 1800 nM (inactive)
GI50 (SF-268): 1420 nM (inactive)
GI50 (SF-295): 1370 nM (inactive)
GI50 (SF-539): 1350 nM (inactive)
GI50 (SK-MEL-28): 1800 nM (inactive)
GI50 (SK-MEL-2): 1340 nM (inactive)
GI50 (SK-MEL-5): 1890 nM (inactive)
GI50 (SK-OV-3): 2110 nM (inactive)
GI50 (SN12C): 1670 nM (inactive)
GI50 (SNB-19): 1630 nM (inactive)
GI50 (SNB-75): 1590 nM (inactive)
GI50 (SNB-78): 2000 nM (inactive)
GI50 (SR): 337 nM (active)
GI50 (SW-620): 912 nM (active)
GI50 (TK-10): 3610 nM (inactive)
GI50 (U-251): 1170 nM (inactive)
GI50 (UACC-257): 2440 nM (inactive)
GI50 (UACC-62): 1620 nM (inactive)
GI50 (UO-31): 1520 nM (inactive)
GI50 (XF498): 1760 nM (inactive)
